Measured values taken from US6737383B1, “Herbicidal oxadiazolidines” (priority 1999, dated 2004).

Key:
bamyardgrass = experiment: Test B flood test barnyardgrass; assay type: in vivo, Echinochloa crus-galli
How it was run: (§1)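 Flood test on plants grown to the 2-leaf stage; treated plants kept in greenhouse twelve to sixteen days, then visually rated against controls on a 0 (no effect) to 10 (complete control) scale.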

wheat = experiment: Test B pre/postemergence wheat; assay type: in vivo, Triticum aestivum
How it was run: (§2)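 Herbicidal effect was estimated by eye on a ten-point control scale after plants spent twelve to sixteen days in a greenhouse following soil or foliar treatment. Foliar sprays targeted plants at one to four leaves; all doses were formulated in a non-phytotoxic solvent with surfactant.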

crabgrass = experiment: Test B pre/postemergence crabgrass; assay type: in vivo, Digitaria sanguinalis
How it was run: as §2

wild oat = experiment: Test B pre/postemergence wild oat; assay type: in vivo, Avena fatua
How it was run: as §2

morningglory = experiment: Test B pre/postemergence morningglory; assay type: in vivo, Ipomoea hederacea
How it was run: as §2

pigweed = experiment: Test B pre/postemergence pigweed; assay type: in vivo, Amaranthus retroflexus
How it was run: as §2

corn = experiment: Test B pre/postemergence corn; assay type: in vivo, Zea mays
How it was run: as §2

duck salad = experiment: Test B flood test duck salad; assay type: in vivo, Heteranthera limosa
How it was run: as §1

rice = experiment: Test B flood test rice; assay type: in vivo, Oryza sativa
How it was run: as §1

velvetleaf = experiment: Test B pre/postemergence velvetleaf; assay type: in vivo, Abutilon theophrasti
How it was run: as §2

cocklebur = experiment: Test B pre/postemergence cocklebur; assay type: in vivo, Xanthium strumarium
How it was run: as §2

rape = experiment: Test B pre/postemergence rape; assay type: in vivo, Brassica napus
How it was run: as §2

soybean = experiment: Test B pre/postemergence soybean; assay type: in vivo, Glycine max
How it was run: as §2

bedstraw = experiment: Test B pre/postemergence bedstraw; assay type: in vivo, Galium aparine; conditions: Postemergence
How it was run: as §2

blackgrass = experiment: Test B pre/postemergence blackgrass; assay type: in vivo, Alopecurus myosuroides
How it was run: as §2

purple nutsedge = experiment: Test B pre/postemergence purple nutsedge; assay type: in vivo, Cyperus rotundus
How it was run: as §2

smallflower flatsedge = experiment: Test B flood test smallflower flatsedge; assay type: in vivo, Cyperus difformis
How it was run: as §1

giant foxtail = experiment: Test B pre/postemergence giant foxtail; assay type: in vivo, Setaria faberii
How it was run: as §2

sugar beet = experiment: Test B pre/postemergence sugar beet; assay type: in vivo, Beta vulgaris
How it was run: as §2

surinam grass = experiment: Test B pre/postemergence surinam grass; assay type: in vivo, Brachiaria decumbens
How it was run: as §2

[1] = Rate 62 g/ha, flood test species, Pre-emergence, visual evaluation after twelve to sixteen days
[2] = Rate 125 g/ha, under heading Pre-emergence, flood test species, visual evaluation after twelve to sixteen days
[3] = Rate 250 g/ha, Pre-emergence (flood test species), scale 0 to 10, 0 is no effect, 10 is complete control
[4] = Rate 500 g/ha, Pre-emergence section of Table B, 0 to 10 scale (0 no effect, 10 complete control)
[5] = Postemergence, Rate 125 g/ha, scale 0 to 10, 0 is no effect, 10 is complete control
[6] = Postemergence, Rate 500 g/ha, scale 0 to 10, 0 is no effect, 10 is complete control
[7] = Preemergence, Rate 62 g/ha, scale of 0 to 10 where 0 is no effect and 10 is complete control
[8] = Preemergence, Rate 125 g/ha, scale 0 to 10, 0 is no effect, 10 is complete control
[9] = Preemergence, Rate 500 g/ha, scale 0 to 10, 0 is no effect, 10 is complete control
[10] = Rate 62 g/ha, Postemergence, scale 0 to 10 (0 no effect, 10 complete control)
[11] = Postemergence, Rate 250 g/ha, scale 0 to 10
[12] = Preemergence, Rate 250 g/ha, scale 0 to 10, 0 is no effect, 10 is complete control

CC(C)C(=O)Cn1c(=O)on(C(=O)N(c2ccc(Cl)cc2)C(C)C)c1=O [Compound 487]
2: Morningglory plant response rating (morningglory; [10]) | Redroot pigweed plant response rating (pigweed; [5]) | Plant response rating, Velvetleaf (velvetleaf; [6]) | Bedstraw plant response rating (bedstraw; Rate 125 g/ha, scale 0 to 10, 0 is no effect, 10 is complete control) | Plant response rating, Blackgrass (blackgrass; [7]) | Giant foxtail plant response rating (giant foxtail; [5])
6: Plant response rating, Crabgrass (crabgrass; [7]) | Wild oats plant response rating (wild oat; [9]) | Bedstraw plant response rating (bedstraw; Rate 250 g/ha, scale 0 to 10) | Plant response rating, Bedstraw (bedstraw; Rate 500 g/ha, scale 0 to 10, 0 is no effect, 10 is complete control)
5: Crabgrass plant response rating (crabgrass; [11]) | Plant response rating, Crabgrass (crabgrass; [6]) | Plant response rating, Soybean (soybean; [6]) | B. signalgrass plant response rating (surinam grass; [9])
9: Crabgrass plant response rating (crabgrass; [8]) | Blackgrass plant response rating (blackgrass; [9]) | Plant response rating, Giant foxtail (giant foxtail; [7]) | Giant foxtail plant response rating (giant foxtail; [8])
4: Soybean plant response rating (soybean; [5])
0: Plant response rating, Barnyardgrass (0 to 10 scale, 0 is no effect, 10 is complete control) (bamyardgrass; [1]) | Barnyardgrass plant response rating (0 to 10 scale, 0 is no effect, 10 is complete control) (bamyardgrass; [2]) | Barnyardgrass plant response rating (bamyardgrass; [3]) | Barnyardgrass plant response rating (bamyardgrass; [4]) | Wheat plant response rating (wheat; [5]) | Plant response rating, Wheat (wheat; [6]) | Plant response rating, Wheat (wheat; [7]) | Wheat plant response rating (wheat; [8]) | Wheat plant response rating (wheat; [9]) | Wheat plant response rating (wheat; [10]) | Crabgrass plant response rating (crabgrass; [10]) | Wild oats plant response rating (wild oat; [5]) | Plant response rating, Wild oats (wild oat; [6]) | Plant response rating, Wild oats (wild oat; [7]) | Wild oats plant response rating (wild oat; [8]) | Wild oats plant response rating (wild oat; [10]) | Plant response rating, Morningglory (morningglory; [7]) | Morningglory plant response rating (morningglory; [8]) | Morningglory plant response rating (morningglory; [9]) | Redroot pigweed plant response rating (pigweed; [10]) | Corn plant response rating (corn; [5]) | Corn plant response rating (corn; [11]) | Plant response rating, Corn (corn; [6]) | Plant response rating, Corn (corn; [7]) | Corn plant response rating (corn; [8]) | Corn plant response rating (corn; [9]) | Corn plant response rating (corn; [10]) | Plant response rating, Ducksalad (0 to 10 scale, 0 is no effect, 10 is complete control) (duck salad; [1]) | Ducksalad plant response rating (0 to 10 scale, 0 is no effect, 10 is complete control) (duck salad; [2]) | Ducksalad plant response rating (duck salad; [3]) | Ducksalad plant response rating (duck salad; [4]) | Plant response rating, Rice (0 to 10 scale, 0 is no effect, 10 is complete control) (rice; [1]) | Rice plant response rating (0 to 10 scale, 0 is no effect, 10 is complete control) (rice; [2]) | Rice plant response rating (rice; [3]) | Rice plant response rating (rice; [4]) | Velvetleaf plant response rating (velvetleaf; [5]) | Plant response rating, Velvetleaf (velvetleaf; [7]) | Velvetleaf plant response rating (velvetleaf; [8]) | Velvetleaf plant response rating (velvetleaf; [9]) | Cocklebur plant response rating (cocklebur; [5]) | Cocklebur plant response rating (cocklebur; [11]) | Plant response rating, Cocklebur (cocklebur; [6]) | Plant response rating, Cocklebur (cocklebur; [7]) | Cocklebur plant response rating (cocklebur; [12]) | Cocklebur plant response rating (cocklebur; [9]) | Cocklebur plant response rating (cocklebur; [10]) | Rape plant response rating (rape; [5]) | Plant response rating, Rape (rape; [7]) | Rape plant response rating (rape; [8]) | Rape plant response rating (rape; [9]) | Rape plant response rating (rape; [10]) | Plant response rating, Soybean (soybean; [7]) | Soybean plant response rating (soybean; [8]) | Soybean plant response rating (soybean; [9]) | Bedstraw plant response rating (bedstraw; Rate 62 g/ha, scale 0 to 10 (0 no effect, 10 complete control)) | Blackgrass plant response rating (blackgrass; [5]) | Blackgrass plant response rating (blackgrass; [11]) | Blackgrass plant response rating (blackgrass; [10]) | Nutsedge plant response rating (purple nutsedge; [5]) | Plant response rating, Nutsedge (purple nutsedge; [6]) | Plant response rating, Nutsedge (purple nutsedge; [7]) | Nutsedge plant response rating (purple nutsedge; [8]) | Nutsedge plant response rating (purple nutsedge; [9]) | Nutsedge plant response rating (purple nutsedge; [10]) | Plant response rating, S. Flatsedge (0 to 10 scale, 0 is no effect, 10 is complete control) (smallflower flatsedge; [1]) | S. Flatsedge plant response rating (0 to 10 scale, 0 is no effect, 10 is complete control) (smallflower flatsedge; [2]) | S. Flatsedge plant response rating (smallflower flatsedge; [3]) | S. Flatsedge plant response rating (smallflower flatsedge; [4]) | Giant foxtail plant response rating (giant foxtail; [10]) | Sugarbeets plant response rating (sugar beet; [5]) | Plant response rating, Sugarbeets (sugar beet; [6]) | Plant response rating, Sugarbeets (sugar beet; [7]) | Sugarbeets plant response rating (sugar beet; [8]) | Sugarbeets plant response rating (sugar beet; [9]) | Sugarbeets plant response rating (sugar beet; [10]) | B. signalgrass plant response rating (surinam grass; [5]) | B. signalgrass plant response rating (surinam grass; Postemergence, Rate 250 g/ha, scale 0 to 10, 0 no effect, 10 complete control) | Plant response rating, B. signalgrass (surinam grass; [6]) | B. signalgrass plant response rating (surinam grass; [10])
3: Crabgrass plant response rating (crabgrass; [5]) | Plant response rating, Redroot pigweed (pigweed; [6]) | Plant response rating, Rape (rape; [6]) | Soybean plant response rating (soybean; [10]) | Blackgrass plant response rating (blackgrass; [8]) | Plant response rating, B. signalgrass (surinam grass; [7]) | B. signalgrass plant response rating (surinam grass; [8]) | B. signalgrass plant response rating (surinam grass; [12])
1: Plant response rating, Redroot pigweed (pigweed; [7]) | Plant response rating, Blackgrass (blackgrass; [6])
7: Blackgrass plant response rating (blackgrass; [12])
8: Redroot pigweed plant response rating (pigweed; [8]) | Plant response rating, Giant foxtail (giant foxtail; [6])
10: Crabgrass plant response rating (crabgrass; [9]) | Morningglory plant response rating (morningglory; [5]) | Plant response rating, Morningglory (morningglory; [6]) | Redroot pigweed plant response rating (pigweed; [9]) | Giant foxtail plant response rating (giant foxtail; [9])
